Experimental data: ChEMBL document CHEMBL1124522, “Synthesis and antitumor activity of 5-deaza-5,6,7,8-tetrahydrofolic acid and its N10-substituted analogues” (J Med Chem, 1989)
Values belong to the compound of their own block, whether it stands above or below them.

Legend:
[1] = biological target: T1, Folylpolyglutamate synthase, mitochondrial (Mus musculus) (UniProt P48760); assay: First order catalytic rate constants (k) was determined from mouse liver Folyl-polyglutamate synthase
T1 sequence (whole entry): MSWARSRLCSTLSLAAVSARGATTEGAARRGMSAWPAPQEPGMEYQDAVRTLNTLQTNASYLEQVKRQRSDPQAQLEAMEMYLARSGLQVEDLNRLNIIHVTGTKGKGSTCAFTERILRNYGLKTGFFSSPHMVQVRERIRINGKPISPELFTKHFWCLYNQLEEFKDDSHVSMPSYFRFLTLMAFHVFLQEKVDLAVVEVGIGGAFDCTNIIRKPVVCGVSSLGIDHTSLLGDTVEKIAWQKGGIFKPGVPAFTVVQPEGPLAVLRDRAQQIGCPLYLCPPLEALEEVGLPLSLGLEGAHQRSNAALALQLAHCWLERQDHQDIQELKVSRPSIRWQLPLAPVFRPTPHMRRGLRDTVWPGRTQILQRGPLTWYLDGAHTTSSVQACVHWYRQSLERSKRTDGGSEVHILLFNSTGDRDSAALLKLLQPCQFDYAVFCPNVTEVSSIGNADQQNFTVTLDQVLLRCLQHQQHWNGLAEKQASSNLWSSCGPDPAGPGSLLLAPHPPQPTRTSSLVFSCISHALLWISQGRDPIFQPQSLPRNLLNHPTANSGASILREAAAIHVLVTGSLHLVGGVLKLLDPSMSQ

[2] = biological target: T1, Folylpolyglutamate synthase, mitochondrial (Mus musculus); assay: Apparent catalytic rate constants (Km) owas determined from mouse liver Folyl-polyglutamate synthase
[3] = tested on: CCRF-CEM; assay: Compound was tested for its antitumor activity against human lymphoblastic leukemic cells(CCRF-CEM) in vitro; format: functional, cell-based
[4] = In vivo anti tumor activity (toxic/total) at dose 100 mg/kg in C3H mice with transplantable murine solid tumor 6C3HED lymphosarcoma; Compound was tested on 10 mice.; format: functional, Mus musculus
[5] = Percent inhibition against C3H mammary adenocarcinoma at dose 50 mg/kg in C3H mice;Compound was toxic.; format: ADME, organism-based; parameters: dose 50 mg/kg; conditions: mouse, in vivo
[6] = In vivo anti tumor activity (toxic/total) at dose 50 mg/kg in C3H mice with transplantable murine solid tumor 6C3HED lymphosarcoma; Compound was tested on 10 mice.; format: functional, Mus musculus
[7] = Percent inhibition against 6C3HED lymphosarcoma at dose 12.5 mg/kg in C3H mice; format: functional; conditions: Mus musculus
[8] = Percent inhibition against 6C3HED lymphosarcoma at dose 25 mg/kg in C3H mice; format: functional; conditions: Mus musculus
[9] = In vivo antitumor activity (toxic/total) at dose 25 mg/kg in C3H mice with transplantable murine solid tumor C3H mammary adenocarcinoma; Compound was tested on 10 mice.; format: functional, Mus musculus
[10] = Percent inhibition against C3H mammary adenocarcinoma at dose 25 mg/kg in C3H mice; format: functional; conditions: Mus musculus
[11] = In vivo antitumor activity (toxic/total) at dose 12.5 mg/kg in C3H mice with transplantable murine solid tumor C3H mammary adenocarcinoma; Compound was tested on 10 mice.; format: functional, Mus musculus
[12] = In vivo antitumor activity (toxic/total) at dose 50 mg/kg in C3H mice with transplantable murine solid tumor C3H mammary adenocarcinoma; Compound was tested on 10 mice.; format: functional, Mus musculus
[13] = Percent inhibition against 6C3HED lymphosarcoma at dose 100 mg/kg in C3H mice; format: functional; conditions: Mus musculus
[14] = In vivo anti tumor activity (toxic/total) at dose 25 mg/kg in C3H mice with transplantable murine solid tumor 6C3HED lymphosarcoma; Compound was tested on 10 mice.; format: functional, Mus musculus
[15] = Percent inhibition against C3H mammary adenocarcinoma at dose 12.5 mg/kg in C3H mice; format: functional; conditions: Mus musculus
[16] = Percent inhibition against 6C3HED lymphosarcoma at dose 50 mg/kg in C3H mice; format: functional; conditions: Mus musculus
[17] = In vivo anti tumor activity (toxic/total) at dose 12.5 mg/kg in C3H mice with transplantable murine solid tumor 6C3HED lymphosarcoma; Compound was tested on 10 mice.; format: functional, Mus musculus
[18] = biological target: T1, Folylpolyglutamate synthase, mitochondrial (Mus musculus); assay: Apparent catalytic rate constants (Km) was determined from mouse liver Folyl-polyglutamate synthase

SMILES: Nc1nc2c(c(=O)[nH]1)C[C@@H](CCc1ccc(C(=O)N[C@@H](CCC(=O)O)C(=O)O)cc1)CN2 (stereo in doubt; form 3)
- k [1]: 32
- Km app [2]: 7.3 µM

SMILES: Nc1nc2c(c(=O)[nH]1)C[C@@H](CCc1ccc(C(=O)N[C@@H](CCC(=O)O)C(=O)O)cc1)CN2 (stereo in doubt; form 1) [LOMETREXOL]
- IC50 ([3]; ccrf-cem): 8 nM

SMILES: Nc1nc2c(c(=O)[nH]1)C[C@@H](CCc1ccc(C(=O)N[C@@H](CCC(=O)O)C(=O)O)cc1)CN2 (stereo in doubt; form 2) [LOMETREXOL]
- IC50 ([3]; ccrf-cem): 5 nM

Further lines, with some results ahead:

- IC50 ([3]; Homo sapiens, CCRF-CEM): 40 nM
SMILES: CN(CC1CNc2nc(N)nc(O)c2C1)c1ccc(C(=O)N[C@@H](CCC(=O)O)C(=O)O)cc1 (some centres not stated)

- IC50 ([3]; ccrf-cem): 50 nM
SMILES: Nc1nc(O)c2c(n1)NCC(CN(C=O)c1ccc(C(=O)N[C@@H](CCC(=O)O)C(=O)O)cc1)C2 (stereo in doubt; 7b)
- tox/total [4]: 7
- Inhibition [5]: Toxic
- tox/total [6]: 5
- inhibition in vivo at 12.5 mg/kg [7]: 95%
- inhibition in vivo at 25 mg/kg [8]: 100%
- tox/total [9]: 6
- inhibition in vivo at 25 mg/kg [10]: 98%
- tox/total [11]: 0
- tox/total [12]: 10
- inhibition in vivo at 100 mg/kg [13]: 100%
- tox/total [14]: 1
- inhibition in vivo at 12.5 mg/kg [15]: 86%
- inhibition in vivo at 50 mg/kg [16]: 100%
- tox/total [17]: 1

- k [1]: 170
- Km app [18]: 1.06 µM
SMILES: Nc1nc(O)c2c(n1)NCC(CNc1ccc(C(=O)N[C@@H](CCC(=O)O)C(=O)O)cc1)C2 (stereo in doubt; 7a)
